Experimental data: US4012395A, “Process for preparing thiazolidinone acetic acid derivatives” (Warner-Lambert Company, priority 1974, dated 1977)

What was measured:
[1] = system: diuresis of conscious dogs; assay: Diuresis in conscious dogs, intragastric administration; type: in vivo, dog (unanesthetized adult female Beagle); settings: for maximal achievable effect on the diuresis (urine excretion): 25.0 mg/kg
Method: Experiments were carried out in 5 unanesthetized adult female Beagle dogs, weighing 15 to 22 kg, which were trained to lie on a table without fixation. The animals were not episiotomized. A rubber catheter was introduced into the bladder and excreted urine was collected separately for each animal and the volume measured in 30 minute intervals. After a constant urine flow was achieved, test substances were administered by stomach tube. The diuretics were diluted with saline solution so that a constant volume of 25 ml/kg was reached. Three animals received the test substances and two served as controls. The lowest dose of the diuretics administered was 1.56 mg/kg. Dosages were increased by a factor of 2 up to 50 mg/kg.

in vivo = settings: rat, iv
[2] = system: urine excreted by each kidney, mongrel dogs; assay: Diuresis in anesthetized dogs, intravenous administration; type: in vivo, dog (male and female mongrel); settings: i.v.; for urinary excretion / urinary flow increased to: 32.0 mg/kg; for dose dependency of diuretic effect, r: 2.0 up to 64.0 mg/kg
Method: Experiments were performed in male and female mongrel dogs, anesthetized with pentobarbital. The body weight was between 9 and 11 kg. After laparotomy the proximal part of the ureters was canulated and the urine excreted by each kidney collected in periods of 10 minutes. Arterial and venous pressure were recorded throughout the experiment. At the beginning 1.5 ml/kg of a tempered saline solution were infused for one and a half hour. After constant urine-flow was reached, the diuretics were injected into the femoral vein. The initial dose was 2.0 mg/kg which was increased with the factor 2 up to 64.0 mg/kg. Two animals were used for each dose level.

[3] = Toxicity (general statement); settings: in vivo
mice = assay: Acute toxicity in mice, intragastric; type: in vivo, mouse; settings: aqueous solution, within 48 hours
rats = settings: rat, in vivo
[4] = system: potassium excretion in dogs; assay: Influence on potassium excretion (clearance experiments); type: in vivo, dog; settings: anesthetized dogs, with higher amounts of sodium excreted
Method: Animals were anesthetized by 30.0 mg/kg pentobarbital intravenously. At the beginning of the experiment one saline solution was infused within 1 hour. In the urine which was collected by using a bladder catheter besides other parameters potassium and sodium concentrations were determined by flame photometry.

Row | Structure (SMILES) | maximal achievable effect on the diuresis (urine excretion) [1] [ml/animal/min] | effect of dose increase on urine excretion ([1]; above 25.0 mg/kg) | LD50 (in vivo) [mg/kg] | diuretic activity compared with 3282 [2] | urinary excretion / urinary flow increased to [2] [ml/minute per animal] | dose dependency of diuretic effect, r [2] | acute toxicity (in words) [3] | dosage up to which none of the animals died (mice) | dosage up to which no deaths were seen (rats) | increase of potassium excretion, Furosemide versus […] [4]
1 | CCOC(=O)/C=C1\SC(N2CCCCC2)C(=O)N1C (stereo not drawn) [Etozolin, ethyl-3-methyl-4-oxo-5-piperidino-Δ^2,α -thiazolidineacetate] | 7.8 | does not result in a further increase of urine excretion | 56.6 | far less active | 2.25 | 0.5583 | – | – | – | –
2 | CN1C(=O)C(N2CCCCC2)SC1=CC(=O)O (stereo not shown) [Example 3282, (Z)-3-Methyl-4-oxo-5N-piperidino-thiazolidin-2-ylidene-acetic acid] | 10.9 | – | – | – | 16 | 0.8799 | very favorable | ≥ 2,250 mg/kg | ≥ 1,000 mg/kg | by far more increased with Furosemide than with 3282
